In patent US12214021B2 (CHINA AGRICULTURAL UNIVERSITY, priority 2018, dated 2025):

Tests used:
VDR = experiment: effect of p38 and TGF-β/Smads pathway inhibitors on VDR expression promoted by LF; format: cell-based; settings: for effect of inhibitor on the expression of VDR promoted by LF in the cytoplasm: FIG. 17A; for effect of inhibitor on the expression of VDR promoted by LF in nucleus: FIG. 17B
Protocol: In order to verify the mechanism of LF for promoting the high expression of VDR, firstly, inhibitors were used in the cytoplasm to inhibit the extracellular signaling pathway to detect the promotion effect of LF on VDR. The p38 inhibitor SB203580 and the TGF-β/smads pathway inhibitor SB431542 were added to detect the expression of VDR promoted by LF.
Since VDR mainly functions in the nucleus, after inhibiting the pathway using SB203580 and SB431542 inhibitors, the expression of VDR promoted by LF in nucleus was detected.

osteoblasts = experiment: proliferation of osteoblasts promoted by LF (MTT method); format: cell-based; settings: 1 nM together with LF, FIG. 4
Protocol: Based on transcriptome data, the inventors verified that LF can promote the high expression of VDR at both the gene and protein levels. In order to confirm the role of this pathway in the promotion of osteoblast proliferation and differentiation by LF, the inventors first designed a VDR siRNA to achieve the purpose of transiently silencing VDR genes. The principle of siRNA is the post-transcriptional gene silencing mechanism that blocks the expression of corresponding gene. 20 μM VDR siRNA was added to osteoblasts, the proliferation rate of osteoblasts promoted by LF was detected by MTT method, and the ALP activity of osteoblasts promoted by LF was detected by enzyme-linked immunoassay.
The inventors first confirmed that LF promotes the proliferation and differentiation of osteoblasts through the regulation of the VDR pathway using the osteoblast model. Since the osteogenic effect of VDR is mainly achieved by vitamin D, in order to simulate the normal physiological environment, the inventors treated osteoblasts with both 1 nM of […] (the active form of vitamin D) and LF, and then studied the proliferation and differentiation of osteoblasts.

SMILES	effect of inhibitor on the expression of VDR promoted by LF in the cytoplasm (VDR)	effect of inhibitor on the expression of VDR promoted by LF in nucleus (VDR)	effect of the presence of 1.25(OH)2D3 on the osteogenic activity of LF (osteoblasts)
C[S+]([O-])c1ccc(-c2nc(-c3ccncc3)c(-c3ccc(F)cc3)[nH]2)cc1 (centres unmarked) [SB203580]	no significant effect	no significant effect	
NC(=O)c1ccc(-c2nc(-c3ccc4c(c3)OCO4)c(-c3ccccn3)[nH]2)cc1 [SB431542]	no significant effect	no significant effect	
C=C1/C(=C\C=C2/CCC[C@]3(C)[C@@H]([C@H](C)CCCC(C)(C)O)CC[C@@H]23)C[C@@H](O)C[C@@H]1O [1.25(OH)2D3, reference compound]			does not affect
